Test [1] has as its target succinate-ubiquinone redutase (SDH) of mitochondria from Bo47 WT strain (Botrytis cinerea, UniProt A0A384J5E4+D2IH01+D2IH03). Briefly: SDH activity of extracted mitochondria by DCPIP reduction at 595 nm, wild type. Type of test: biochemical. The following applies: 20 min preincubation, -log 10 of concentration inhibiting DCPIP reduction by 50%; for IC50: PI50 Bo47 (Wild type). The method, then:
(§1) Compounds activity was investigated at the level of the mitochondrial target and compared to other SDH inhibitors.
(§2) Mitochondria were extracted according to Cramer et al. (1983) Analytical biochemistry, 128, 384-392 and the mycelium prepared according to Fritz et al., (1993). Agronomie 13, 225-230 except that spore's incubation was pursued for 48 hours. SDH activity was measured by following DCPIP (2,6-dichlorphenol-indophenol) reduction at 595 nm overtime. To test SDH inhibitors, mitochondria were incubated with test compounds for 20 min prior the initiation of the reaction.

Test [2] concerns the target succinate-ubiquinone redutase (SDH) of mitochondria from the 3884 strain (SDHB P225H substitution) (Botrytis cinerea, UniProt A0A384J5E4+D2IH01+D2IH03, P225H). Briefly: SDH activity of extracted mitochondria by DCPIP reduction at 595 nm, P225H mutant. The class given is biochemical. The conditions noted are these: for IC50: read-out: PI50 P225H3884 (converted); for Classification: pI50 on P225H 3884 mitochondria compared to WT. Also on record: key to Classification: Classification A pI50 increase or stable compared to WT; Classification B pI50 decrease inferior or equal to 0.6 compared to WT; Classification C pI50 decrease superior to 0.6 compared to WT. As for the experimental part: as §1, §2

For test [3], the system named is Botrytis cinerea boscalid-resistant strains with SDHB_P225H, F substitutions. Briefly: Sensitivity assay in microtiter plate, resistance factor of boscalid-resistant field strains versus Bo47 WT. Type of test: cell-based. As for the experimental part: Four to five strains with SDHB_P225H, F substitutions were retained for subsequent sensitivity assays in microtiter plate. IC50 of test compounds were determined and resistance factors (RF) calculated as the ratio of IC50 mutant/IC50 WT (Bo47). […] Strains giving a RF below 10 were considered sensitive, moderately resistant when RF was comprised between 10 and 50, resistant above 50.

Where [4] appears, read: mitochondria of 3884 strain, 20 min preincubation, -log 10 of concentration inhibiting DCPIP reduction by 50%.
The mark [5] stands for this setting: mutation P225F, BOTRCI strain 08BC1554.
[6] abbreviates: mutation P225F, BOTRCI strain 08BC1557.
Where [7] appears, read: mutation P225F, BOTRCI strain 08BC1558.
The mark [8] stands for this setting: mutation P225F, BOTRCI strain 09BC2615.
[9] abbreviates: mutation P225H, BOTRCI strain 09BC2640.
Where [10] appears, read: mutation P225H, BOTRCI strain 09BC2648.
Where [11] appears, read: mutation P225H, BOTRCI strain 09BC2649.
The mark [12] stands for this setting: mutation P225H, BOTRCI strain 09BC2652.

From patent publication US9668480B2, “Method for treating plants against fungi resistant to fungicides using carboxamide or thiocarboxamide derivatives” (priority 2012, dated 2017) come the findings set out here.

Values joined by “and” are separate entries in the source; they are usually repeats but may differ in a detail not shown here. Equal values may be shown once.

Sequence of succinate-ubiquinone redutase (SDH) of mitochondria from the 3884 strain (SDHB P225H substitution) (A0A384J5E4 30-300, stated change not applied): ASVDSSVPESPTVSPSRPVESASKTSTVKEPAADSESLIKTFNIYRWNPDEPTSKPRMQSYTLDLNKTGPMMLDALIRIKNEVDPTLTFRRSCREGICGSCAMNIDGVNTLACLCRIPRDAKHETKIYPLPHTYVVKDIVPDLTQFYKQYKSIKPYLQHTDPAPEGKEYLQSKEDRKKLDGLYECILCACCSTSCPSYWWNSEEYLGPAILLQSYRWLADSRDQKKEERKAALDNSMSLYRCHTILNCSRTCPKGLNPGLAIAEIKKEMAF
Sequence of succinate-ubiquinone redutase (SDH) of mitochondria from the 3884 strain (SDHB P225H substitution) (D2IH03 46-189, stated change not applied): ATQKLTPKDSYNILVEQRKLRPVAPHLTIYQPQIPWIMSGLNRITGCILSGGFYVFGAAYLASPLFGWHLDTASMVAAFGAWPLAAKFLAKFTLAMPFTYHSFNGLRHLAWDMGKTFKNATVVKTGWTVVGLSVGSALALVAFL
Sequence of succinate-ubiquinone redutase (SDH) of mitochondria from the 3884 strain (SDHB P225H substitution) (D2IH01 64-192, stated change not applied): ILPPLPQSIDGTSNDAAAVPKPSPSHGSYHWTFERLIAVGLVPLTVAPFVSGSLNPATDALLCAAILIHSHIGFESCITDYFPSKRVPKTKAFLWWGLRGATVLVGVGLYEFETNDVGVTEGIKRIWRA
Sequence of succinate-ubiquinone redutase (SDH) of mitochondria from the 3884 strain (SDHB P225H substitution) (A0A384K456 34-647 partner): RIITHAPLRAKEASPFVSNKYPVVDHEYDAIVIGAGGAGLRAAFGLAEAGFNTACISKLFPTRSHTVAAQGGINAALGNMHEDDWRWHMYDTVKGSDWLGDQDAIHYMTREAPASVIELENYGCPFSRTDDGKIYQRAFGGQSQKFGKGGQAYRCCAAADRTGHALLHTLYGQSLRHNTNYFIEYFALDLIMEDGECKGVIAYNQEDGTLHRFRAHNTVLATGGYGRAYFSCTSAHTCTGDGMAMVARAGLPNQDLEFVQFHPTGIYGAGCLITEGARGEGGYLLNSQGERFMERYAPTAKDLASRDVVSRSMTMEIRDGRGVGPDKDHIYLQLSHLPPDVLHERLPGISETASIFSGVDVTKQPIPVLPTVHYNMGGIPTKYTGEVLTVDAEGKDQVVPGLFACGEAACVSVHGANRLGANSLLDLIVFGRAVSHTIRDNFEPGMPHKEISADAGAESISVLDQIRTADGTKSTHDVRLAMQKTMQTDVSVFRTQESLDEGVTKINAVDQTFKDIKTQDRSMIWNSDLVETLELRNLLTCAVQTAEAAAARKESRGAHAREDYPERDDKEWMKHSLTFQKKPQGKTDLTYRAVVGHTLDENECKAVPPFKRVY
Sequence of succinate-ubiquinone redutase (SDH) of mitochondria from Bo47 WT strain (A0A384K456 entry or part of it): as the sequence (A0A384K456 34-647 partner) above
Sequence of succinate-ubiquinone redutase (SDH) of mitochondria from Bo47 WT strain (D2IH03 entry or part of it): as the sequence (D2IH03 46-189, stated change not applied) above
Sequence of succinate-ubiquinone redutase (SDH) of mitochondria from Bo47 WT strain (A0A384J5E4 entry or part of it): as the sequence (A0A384J5E4 30-300, stated change not applied) above
Sequence of succinate-ubiquinone redutase (SDH) of mitochondria from Bo47 WT strain (D2IH01 entry or part of it): as the sequence (D2IH01 64-192, stated change not applied) above

In the case of `Cc1ccc(C(C)(C)C)c(CN(C(=O)c2c(C(F)F)nn(C)c2F)C2CC2)c1` [Compound A14, N-(2-tert-butyl-5-methylbenzyl)-N-cyclopropyl-3-(difluoromethyl)-5-fluoro-1-methyl-1H-pyrazole-4-carboxamide], the IC50 in test [1] is 5.01 nM; in test [2] (setting [4]), 3.16 nM. In addition, in test [2], the Classification entry was “A”.

`Cn1nc(C(F)F)c(C(=O)N(Cc2cc(F)ccc2C2CCCC2)C2CC2)c1F` [Compound A9, N-(2-cyclopentyl-5-fluorobenzyl)-N-cyclopropyl-3-(difluoromethyl)-5-fluoro-1-methyl-1H-pyrazole-4-carboxamide]: the IC50 in test [1] was 5.01 nM; in test [2] (setting [4]) it was 3.16 nM. In addition, the Classification result in test [2] is given as “A”.

`Cn1nc(C(F)F)c(C(=O)N(Cc2ccccc2[Si](C)(C)C)C2CC2)c1F` [Compound A22, N-cyclopropyl-3-(difluoromethyl)-5-fluoro-1-methyl-N-[2-(trimethylsilyl)benzyl]-1H-pyrazole-4-carboxamide]: the IC50 in test [1] was 3.98 nM; in test [2] (setting [4]), 3.16 nM. In test [2], the Classification entry was “A”.

Take `CC(C)CC(C)c1sccc1NC(=O)c1cn(C)nc1C(F)(F)F` (stereo not shown) [Penthiopyrad, reference compound]: the IC50 in test [1] is 15.8 nM; in test [2] (setting [4]), 501 nM. Moreover, the Classification result in test [2] is “C (Classification C pI50 decrease superior to 0.6 compared to WT)”.

Take `Cn1nc(C(F)F)c(C(=O)N(Cc2cc(F)ccc2C2CC2)C2CC2)c1F` [Compound A8, N-cyclopropyl-N-(2-cyclopropyl-5-fluorobenzyl)-3-(difluoromethyl)-5-fluoro-1-methyl-1H-pyrazole-4-carboxamide]: the IC50 in test [1] is 7.94 nM; in test [2] (setting [4]), 3.16 nM. In test [2], the Classification result is given as “A”.

For `Cc1ccc(C(C)C)c(CN(C(=O)c2c(C(F)F)nn(C)c2F)C2CC2)c1` [Compound A12, N-cyclopropyl-3-(difluoromethyl)-5-fluoro-N-(2-isopropyl-5-methylbenzyl)-1-methyl-1H-pyrazole-4-carboxamide], the IC50 in test [1] is 3.98 nM; in test [2] (setting [4]), 1 nM. The Classification result in test [2] is “A”.

In the case of `CCc1ccccc1CN(C(=O)c1c(C(F)F)nn(C)c1F)C1CC1` [Compound A21, N-cyclopropyl-3-(difluoromethyl)-N-(2-ethylbenzyl)-5-fluoro-1-methyl-1H-pyrazole-4-carboxamide], the IC50 was 10 nM and 31.6 nM in test [1]; 2.51 nM in test [2] (setting [4]). Moreover, the Classification entry in test [2] was “A”.

In the case of `Cn1cc(C(=O)Nc2ccccc2-c2cc(F)c(F)c(F)c2)c(C(F)F)n1` [Fluxapyroxad], in test [1], the “PI50 Bo47 (Wild type)” value is recorded as 8.0. Further, the “resistance factor (RF), ratio of IC50 mutant/IC50 WT (Bo47)” value (“resistance factor (RF), ratio” below) worked out at 197.2 in test [3] (setting [5]); 135.6 in test [3] (setting [6]); 131.5 in test [3] (setting [7]); 89.1 in test [3] (setting [8]); 103.0 in test [3] (setting [9]); 127.9 in test [3] (setting [10]). Besides, the results for the “resistance factor (RF), ratio” value in test [3] (setting [11]) and in test [3] (setting [12]) were 134.2 and 104.7, respectively. Further, the “PI50 P225H3884” value in test [2] (setting [4]) was 6.2. Also, in test [2], the Classification result is “C (Classification C pI50 decrease superior to 0.6 compared to WT)”.

Take `CC(C)c1ccc(Cl)cc1CN(C(=O)c1c(C(F)F)nn(C)c1F)C1CC1` [Compound A5, N-(5-chloro-2-isopropylbenzyl)-N-cyclopropyl-3-(difluoromethyl)-5-fluoro-1-methyl-1H-pyrazole-4-carboxamide]: the IC50 in test [1] was 6.31 nM; in test [2] (setting [4]), 1.26 nM. In addition, the Classification result in test [2] is on record as “A”.

With `Cn1nc(C(F)F)c(C(=O)N(Cc2ccccc2C(C)(C)C)C2CC2)c1F` [Compound A3, N-(2-tert-butylbenzyl)-N-cyclopropyl-3-(difluoromethyl)-5-fluoro-1-methyl-1H-pyrazole-4-carboxamide], the “resistance factor (RF), ratio” value in test [3] (setting [5]) was determined as 1.8; in test [3] (setting [6]) it was 1.2; in test [3] (setting [7]), 2.2; in test [3] (setting [8]), 1.0; in test [3] (setting [9]), 0.9; in test [3] (setting [10]), 1.0. The “resistance factor (RF), ratio” value in test [3] (setting [11]) is given as 1.7; in test [3] (setting [12]) it was 1.1.

Turning to `Cn1nc(C(F)F)c(C(=O)N(Cc2ccccc2C2CC2)C2CC2)c1F` [Compound A2, N-cyclopropyl-N-(2-cyclopropylbenzyl)-3-(difluoromethyl)-5-fluoro-1-methyl-1H-pyrazole-4-carboxamide], the IC50 was 6.31 nM in test [1] and 2.51 nM in test [2] (setting [4]). In addition, the Classification entry in test [2] is “A”.

As to `CC(C)c1ccccc1CN(C(=O)c1c(C(F)F)nn(C)c1F)C1CC1` [Compound A1, N-cyclopropyl-3-(difluoromethyl)-5-fluoro-N-(2-isopropylbenzyl)-1-methyl-1H-pyrazole-4-carboxamide], the figures for the IC50 in test [1] and in test [2] (setting [4]) were 12.6 nM and 3.16 nM, respectively. For the same molecule, the Classification entry in test [2] was “A”.

For `Cc1ccc(C(F)(F)F)c(CN(C(=O)c2c(C(F)F)nn(C)c2F)C2CC2)c1` [Compound A16, N-cyclopropyl-3-(difluoromethyl)-5-fluoro-1-methyl-N-[5-methyl-2-(trifluoromethyl)benzyl]-1H-pyrazole-4-carboxamide], the values for the IC50 in test [1] and in test [2] (setting [4]) were 20 nM and 5.01 nM, respectively. Besides, the Classification entry in test [2] is on record as “A”.

As to `CC(C)c1cccc(F)c1CN(C(=O)c1c(C(F)F)nn(C)c1F)C1CC1` [Compound A10, N-cyclopropyl-3-(difluoromethyl)-5-fluoro-N-(2-fluoro-6-isopropylbenzyl)-1-methyl-1H-pyrazole-4-carboxamide], the IC50 in test [1] was 3.98 nM; in test [2] (setting [4]), 6.31 nM. The Classification entry in test [2] is given as “B (Classification B pI50 decrease inferior or equal to 0.6 compared to WT)”.

For the molecule `CC(C)c1ccccc1CN(C(=S)c1c(C(F)F)nn(C)c1F)C1CC1` [Compound A20, N-cyclopropyl-3-(difluoromethyl)-5-fluoro-N-(2-isopropylbenzyl)-1-methyl-1H-pyrazole-4-carbothioamide], the figures for the IC50 in test [1] and in test [2] (setting [4]) were 631 nM and 31.6 nM, respectively. Besides, the Classification result in test [2] was “A”.

`CCc1ccc(F)cc1CN(C(=O)c1c(C(F)F)nn(C)c1F)C1CC1` [Compound A6, N-cyclopropyl-3-(difluoromethyl)-N-(2-ethyl-5-fluorobenzyl)-5-fluoro-1-methyl-1H-pyrazole-4-carboxamide]: the IC50 was 7.94 nM in test [1] and 2.51 nM in test [2] (setting [4]). The Classification result in test [2] was “A”.

As to `CC(C)c1ccc(F)cc1CN(C(=O)c1c(C(F)F)nn(C)c1F)C1CC1` [Compound A7, N-cyclopropyl-3-(difluoromethyl)-5-fluoro-N-(5-fluoro-2-isopropylbenzyl)-1-methyl-1H-pyrazole-4-carboxamide], the figures for the IC50 in test [1] and in test [2] (setting [4]) were 3.98 nM and 1.58 nM, respectively. In test [2], the Classification result is reported as “A”.

In the case of `O=C(Nc1ccccc1-c1ccc(Cl)cc1)c1cccnc1Cl` [Boscalid, reference compound], the IC50 in test [1] is 39.8 nM; in test [2] (setting [4]), 5010 nM. Besides, the Classification entry in test [2] is given as “C (Classification C pI50 decrease superior to 0.6 compared to WT)”.

Take `Cn1nc(C(F)F)c(C(=O)N(Cc2cc(Cl)ccc2C(F)(F)F)C2CC2)c1F` [Compound A15, N-[5-chloro-2-(trifluoromethyl)benzyl]-N-cyclopropyl-3-(difluoromethyl)-5-fluoro-1-methyl-1H-pyrazole-4-carboxamide]: the IC50 in test [1] was 15.8 nM; in test [2] (setting [4]) it was 6.31 nM. In addition, the Classification entry in test [2] was “A”.

With `Cn1nc(C(F)F)c(C(=O)N(Cc2c(Cl)cccc2C(F)(F)F)C2CC2)c1F` [Compound A17, N-[2-chloro-6-(trifluoromethyl)benzyl]-N-cyclopropyl-3-(difluoromethyl)-5-fluoro-1-methyl-1H-pyrazole-4-carboxamide], the IC50 in test [1] is 10 nM; in test [2] (setting [4]), 3.16 nM. The Classification result in test [2] is “A”.
